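Each compound was tested at five concentrations against cells in 96-well plates for 48 hours. GI50 = concentration required for 50% inhibition of growth. At the TGI there is no net growth.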

Experimental findings from PubChem BioAssay (NCI) are described below.

Test systems include RXF 393 renal; LOX IMVI melanoma; CAKI-1 renal; ACHN renal; SK-MEL-5 melanoma; OVCAR-4 ovarian; BT-549 breast; HCT-15 colon; IGROV1 ovarian; HCC-2998 colon.
Holding throughout (experiment): growth of human tumour cells (NCI), 48 h

For the compound `CCCC[N+](CCCC)=c1ccc2nc3c(C)cc(N(CC)CC)cc3sc-2c1`, the GI50 in the assay on RXF 393 renal was 0.322 µM; in the assay on LOX IMVI melanoma, 0.146 µM; with CAKI-1 renal it was 0.183 µM; with ACHN renal, 0.187 µM; in the assay with SK-MEL-5 melanoma it was 0.0993 µM; with OVCAR-4 ovarian it was 0.0517 µM. Moreover, the GI50 in the assay on BT-549 breast is 0.225 µM. In addition, the TGI with RXF 393 renal was determined as 1.41 µM; in the assay on LOX IMVI melanoma, 1.13 µM; in the assay with CAKI-1 renal, 1.1 µM; in the assay with ACHN renal, 1.06 µM; with SK-MEL-5 melanoma it was 0.403 µM; in the assay on OVCAR-4 ovarian it was 1.11 µM. The compound further had a TGI in the assay on BT-549 breast of 1.73 µM.
Take `Cc1ccc(C)c(NC(=O)NCc2ccc(Cl)cc2)c1`: the TGI with RXF 393 renal is 28.6 µM; in the assay on HCT-15 colon it was above 100 µM; with IGROV1 ovarian, above 100 µM; in the assay with LOX IMVI melanoma, above 100 µM; in the assay on CAKI-1 renal it was above 100 µM; in the assay with ACHN renal it was above 90.7 µM. Also, the TGI in the assay with SK-MEL-5 melanoma, in the assay on OVCAR-4 ovarian and with BT-549 breast was above 100 µM each time.
Turning to `Oc1c(CN2CCCC2)cc(COCc2ccc(Br)cc2)c2cccnc12`, the GI50 with RXF 393 renal is 1.04 µM; in the assay on HCT-15 colon, 0.0475 µM; in the assay with IGROV1 ovarian, 0.793 µM; in the assay on LOX IMVI melanoma, 0.37 µM; with CAKI-1 renal, 0.106 µM; in the assay on ACHN renal it was 0.241 µM. The GI50 in the assay with SK-MEL-5 melanoma is 0.329 µM; in the assay with OVCAR-4 ovarian, 0.508 µM; in the assay on HCC-2998 colon, 0.901 µM; in the assay on BT-549 breast it was 1.81 µM. The TGI in the assay on RXF 393 renal is 3.41 µM; with HCT-15 colon, 1.72 µM; with IGROV1 ovarian, 5.2 µM; with LOX IMVI melanoma, 1.54 µM; in the assay on CAKI-1 renal, 2.28 µM; in the assay with ACHN renal it was 1.97 µM. Further, the TGI with SK-MEL-5 melanoma was 1.3 µM; in the assay with OVCAR-4 ovarian it was 3.02 µM; with HCC-2998 colon, 3.61 µM; with BT-549 breast, 6.49 µM.
With `Oc1ccc(O)c(-c2cc(-c3ccccc3)nn2-c2ccccc2)c1`, the GI50 in the assay with RXF 393 renal was 31.3 µM; in the assay with HCT-15 colon, 17 µM; with IGROV1 ovarian it was above 100 µM; with LOX IMVI melanoma, 10.2 µM; with CAKI-1 renal, 30.6 µM; in the assay with ACHN renal it was 14.4 µM. Further, the GI50 in the assay on SK-MEL-5 melanoma was 30.7 µM; in the assay on BT-549 breast, 13.4 µM. Moreover, the TGI is above 100 µM in the assay on RXF 393 renal; 42.6 µM with HCT-15 colon; above 100 µM with IGROV1 ovarian; 25 µM in the assay on LOX IMVI melanoma; above 100 µM in the assay with CAKI-1 renal; 29.7 µM with ACHN renal. For the same compound, the TGI in the assay on SK-MEL-5 melanoma is above 100 µM; in the assay on BT-549 breast it was 33.7 µM.
As to `CC(=O)OCC(=O)O[C@@H]1C[C@]2(C(C)C)O[C@@]1(C)[C@@H]1CC[C@@H](C)[C@H]1[C@@H]2OC(=O)/C=C/c1ccccc1`, the GI50 was 0.211 µM in the assay on RXF 393 renal; 17.8 µM with HCT-15 colon; 42.5 µM with IGROV1 ovarian; 15.5 µM in the assay on LOX IMVI melanoma; 0.0244 µM in the assay with CAKI-1 renal; 0.0316 µM in the assay on ACHN renal. The GI50 is 15.5 µM in the assay on SK-MEL-5 melanoma, 22.7 µM in the assay on OVCAR-4 ovarian, 20 µM in the assay on HCC-2998 colon and 0.0987 µM in the assay on BT-549 breast. Besides, the TGI with RXF 393 renal is 2.01 µM; in the assay on HCT-15 colon, above 100 µM; in the assay on IGROV1 ovarian, above 100 µM; in the assay on LOX IMVI melanoma, 32.7 µM; in the assay with CAKI-1 renal it was 0.125 µM; in the assay on ACHN renal, 12.5 µM. The TGI in the assay with SK-MEL-5 melanoma is 31.5 µM; in the assay with OVCAR-4 ovarian, above 100 µM; in the assay with HCC-2998 colon it was 75.3 µM; in the assay on BT-549 breast, 7 µM.
On to `Cn1c(O)c(C(/C=C/c2ccccc2)=NCCN=C(/C=C/c2ccccc2)c2c(O)n(C)c(=O)n(C)c2=O)c(=O)n(C)c1=O`, for which the GI50 is 22.5 µM in the assay on RXF 393 renal; 14.5 µM in the assay with HCT-15 colon; 20.7 µM in the assay on IGROV1 ovarian; 17.1 µM in the assay on LOX IMVI melanoma; 19.9 µM in the assay on CAKI-1 renal; 21.2 µM in the assay on ACHN renal. The figures for the GI50 with SK-MEL-5 melanoma, with OVCAR-4 ovarian and in the assay with BT-549 breast were 11.4 µM, 13.9 µM and 10.2 µM, respectively. The TGI in the assay with RXF 393 renal, with HCT-15 colon, in the assay on IGROV1 ovarian, in the assay on LOX IMVI melanoma, with CAKI-1 renal and with ACHN renal was above 50 µM throughout. For the same compound, the results for the TGI with SK-MEL-5 melanoma, in the assay with OVCAR-4 ovarian and in the assay on BT-549 breast were 29.5 µM, above 50 µM and 29.5 µM, respectively.
Turning to `Cc1cnc(/C=N\NC(N)=S)c2cccc(N)c12`, the GI50 was 2.47 µM in the assay on RXF 393 renal; 3.59 µM with HCT-15 colon; 2.4 µM in the assay with IGROV1 ovarian; 2.32 µM with LOX IMVI melanoma; 2.51 µM in the assay with CAKI-1 renal; 1.51 µM in the assay on ACHN renal. The GI50 is 1.25 µM in the assay on SK-MEL-5 melanoma, 3.4 µM in the assay on OVCAR-4 ovarian and 3.52 µM in the assay on BT-549 breast. Besides, the TGI in the assay with RXF 393 renal was above 100 µM; in the assay on HCT-15 colon it was above 100 µM; in the assay on IGROV1 ovarian, above 100 µM; with LOX IMVI melanoma it was above 100 µM; in the assay with CAKI-1 renal, above 57 µM; in the assay on ACHN renal it was above 30.9 µM. Further, the TGI in the assay on OVCAR-4 ovarian, in the assay on HCC-2998 colon and with BT-549 breast was above 100 µM each time.
On to `CCOC(=O)C1=C(C)NC2SC(=O)/C(=C\c3ccccc3O)N2C1c1ccccc1` (stereo unspecified), for which the GI50 in the assay with RXF 393 renal is 19 µM; with HCT-15 colon, 30.5 µM; with IGROV1 ovarian, 25 µM; in the assay on LOX IMVI melanoma, 18.4 µM; in the assay with CAKI-1 renal, 36.8 µM; with ACHN renal, 28.5 µM. Further, the GI50 with SK-MEL-5 melanoma was 17.2 µM; with HCC-2998 colon, 26.5 µM; with BT-549 breast it was 23.3 µM. Moreover, the TGI in the assay on RXF 393 renal was 46.9 µM; in the assay on HCT-15 colon, above 100 µM; with IGROV1 ovarian, 64.1 µM; with LOX IMVI melanoma, 34 µM; in the assay with CAKI-1 renal, above 100 µM; in the assay with ACHN renal, 81.4 µM. Also, the TGI with SK-MEL-5 melanoma worked out at 32.5 µM; with HCC-2998 colon, 64.8 µM; in the assay on BT-549 breast, 59.8 µM.
Take `CN1CCN(Cc2ccc(NC(=O)c3cncc(C#Cc4cncc5ncccc45)c3)cc2C(F)(F)F)CC1`: the GI50 is 1.77 µM in the assay on RXF 393 renal; 3.9 µM in the assay on HCT-15 colon; 1.16 µM with IGROV1 ovarian; 0.794 µM with LOX IMVI melanoma; 4.74 µM in the assay on CAKI-1 renal; 1.36 µM in the assay on ACHN renal. The GI50 in the assay with SK-MEL-5 melanoma is 2.95 µM; in the assay with HCC-2998 colon it was 2.46 µM; in the assay on BT-549 breast, 7.9 µM. In addition, the TGI came out at 6.46 µM in the assay with RXF 393 renal; 14.7 µM in the assay with HCT-15 colon; 7.45 µM in the assay with IGROV1 ovarian; 2.11 µM in the assay on LOX IMVI melanoma; 16.4 µM in the assay on CAKI-1 renal; 10.5 µM with ACHN renal. Moreover, the figures for the TGI in the assay on SK-MEL-5 melanoma, in the assay with HCC-2998 colon and in the assay with BT-549 breast were 13.6 µM, 17.6 µM and 20.4 µM, respectively.
